Laboratory results as given in US11707477B2, “Formulation comprising a gemcitabine-prodrug” (NuCana plc, priority 2014, dated 2023).
“And” between values parts separate entries of the source, which are not always exact repeats. Identical values can stand only once.

Columns and labels:
[1] = Clinical testing of 80:20 DMA:0.9% saline formulation; format: in vivo
[2] = Solubility in a range of solvents on dilution; format: physicochemical
Method: The protocol adopted was as follows:
A small volume, 1-2 mL, of each solvent system was prepared and a weight of the compound in question was added. The solutions were stirred for approximately 4 hours and then […] membrane filtered. The concentration of the compound in question in the filtrate was then determined by HPLC assay.

[3] = Preferred formulation system: stability; format: physicochemical
Method: The final administration formulation is then prepared by diluting this second formulation to the desired concentration with saline.

Solubility in water = format: physicochemical; conditions: regardless of salt content or pH
[4] = Effect of aqueous dilution on DMA solubility and physical stability; format: physicochemical
Description: Table 2 gives the effect of aqueous dilution on DMA solubility

[5] = DMA 45.8 mg/mL, 1:3 with 0.9% saline containing […] Tween 80
[6] = DMA 45.8 mg/mL, 1:4.5 with 0.9% saline containing […] Tween 80
[7] = DMA 55.0 mg/mL, 1:3 with 0.9% saline containing […] Tween 80
[8] = DMA 73.3 mg/mL, 1:3 with 0.9% saline containing […] Tween 80
[9] = DMA […] mg/mL, Solvent:Saline (0.9%) 1:3
[10] = PEG 400 87.7 mg/mL, 1:1 glucose
[11] = PEG 400 87.7 mg/mL, 1:2 glucose
[12] = PEG 400, 45.6 mg/mL, 1:1.5 with 0.9% saline containing […] Tween 80
[13] = PEG 400, 45.6 mg/mL, 1:2 with 0.9% saline containing […] Tween 80
[14] = PEG 400, 45.6 mg/mL, 1:2.5 with 0.9% saline containing […] Tween 80
[15] = PEG 400, 91.2 mg/mL, 1:2 with 0.9% saline containing […] Tween 80
[16] = PEG 400, 91.2 mg/mL, Solvent:Saline (0.9%) 1:1
[17] = PEG 400, 91.2 mg/mL, Solvent:Saline (0.9%) 1:2

Structure (SMILES): C[C@H](NP(=O)(OC[C@H]1O[C@@H](n2ccc(N)nc2=O)C(F)(F)C1O)Oc1ccccc1)C(=O)OCc1ccccc1 (stereo partly drawn) [NUC-1031, 2′-Deoxy-2′,2′-difluoro-D-cytidine-5′-O-[phenyl (benzoxy-L-alaninyl)]phosphate]
- treatment outcome in the clinical study ([1]; 250 mg NUC-1031 in 80:20 DMA:0.9% saline solution, 5 ml vial): successful treatment
- tolerability of injection ([1]; 250 mg NUC-1031 in 80:20 DMA:0.9% saline, needed to be administered by a central line): pain on injection
- Appearance [2, 5]: Clear
- NUC-1031 mg/mL HPLC assay filtrate [2, 5]: 11.5 mg/mL
- Appearance ([2]; DMA 45.8 mg/mL, 1:3.5 with 0.9% saline containing […] Tween 80): Clear
- NUC-1031 mg/mL HPLC assay filtrate ([2]; DMA 45.8 mg/mL, 1:4 with 0.9% saline containing […] Tween 80): 8.4 mg/mL
- Appearance ([2]; DMA 45.8 mg/mL, 1:4 with 0.9% saline containing […] Tween 80 (precipitates >30 min, stirring precipitate dissolves)): Initially clear
- Appearance [2, 6]: Slightly turbid
- NUC-1031 mg/mL HPLC assay filtrate [2, 6]: 7.2 mg/mL
- Appearance [2, 7]: Slightly turbid
- NUC-1031 mg/mL HPLC assay filtrate [2, 7]: 13.9 mg/mL
- Appearance [2, 8]: Precipitation
- NUC-1031 mg/mL HPLC assay filtrate [2, 8]: 14.7 mg/mL
- Appearance ([2]; DMA 92.5 mg/mL, 1:1 glucose): Clear
- Evidence of further precipitation on storage of filtrate at RT >24 h ([2]; DMA 92.5 mg/mL, 1:1 glucose): No
- NUC-1031 mg/mL HPLC assay filtrate ([2]; DMA 92.5 mg/mL, 1:1 glucose): 47.3 mg/mL
- Appearance ([2]; DMA 92.5 mg/mL, 1:2 glucose): Slightly turbid
- Evidence of further precipitation on storage of filtrate at RT >24 h ([2]; DMA 92.5 mg/mL, 1:2 glucose): Yes
- NUC-1031 mg/mL HPLC assay filtrate ([2]; DMA 92.5 mg/mL, 1:2 glucose): 29.7 mg/mL
- Appearance [2, 9]: Precipitation
- NUC-1031 mg/mL HPLC assay filtrate [2, 9]: 14.8 mg/mL
- NUC-1031 mg/mL HPLC assay filtrate ([2]; DMA […], 1:2 with 0.9% saline containing […] Tween 80): 30.9 mg/mL
- NUC-1031 mg/mL HPLC assay filtrate ([2]; DMA […], 1:3 with 0.9% saline containing […] Tween 80): 15.2 mg/mL
- NUC-1031 mg/mL HPLC assay filtrate ([2]; DMA […], Solvent:Saline (0.9%) 1:1): 47.0 mg/mL
- NUC-1031 mg/mL HPLC assay filtrate ([2]; DMA […], Solvent:Saline (0.9%) 1:2): 30.2 mg/mL
- Appearance ([2]; NMP 115.0 mg/mL, 1:1 glucose): Slightly turbid
- Evidence of further precipitation on storage of filtrate at RT >24 h ([2]; NMP 115.0 mg/mL, 1:1 glucose): No
- NUC-1031 mg/mL HPLC assay filtrate ([2]; NMP 115.0 mg/mL, 1:1 glucose): 58.5 mg/mL
- Appearance ([2]; NMP 115.0 mg/mL, 1:1 saline): Slightly turbid
- Evidence of further precipitation on storage of filtrate at RT >24 h ([2]; NMP 115.0 mg/mL, 1:1 saline): No
- NUC-1031 mg/mL HPLC assay filtrate ([2]; NMP 115.0 mg/mL, 1:1 saline): 60.0 mg/mL
- Appearance ([2]; NMP 115.0 mg/mL, 1:2 glucose): Slightly turbid
- Evidence of further precipitation on storage of filtrate at RT >24 h ([2]; NMP 115.0 mg/mL, 1:2 glucose): Yes
- NUC-1031 mg/mL HPLC assay filtrate ([2]; NMP 115.0 mg/mL, 1:2 glucose): 39.6 mg/mL
- Appearance ([2]; NMP 115.0 mg/mL, 1:2 saline): Slightly turbid
- Evidence of further precipitation on storage of filtrate at RT >24 h ([2]; NMP 115.0 mg/mL, 1:2 saline): Yes
- NUC-1031 mg/mL HPLC assay filtrate ([2]; NMP 115.0 mg/mL, 1:2 saline): 40.5 mg/mL
- evidence of precipitation after dilution ([2]; NMP and DMA solutions, dilution 1:1 with water or saline): did not show any evidence of precipitation
- Appearance [2, 10]: Slightly turbid
- Evidence of further precipitation on storage of filtrate at RT >24 h [2, 10]: Yes
- NUC-1031 mg/mL HPLC assay filtrate [2, 10]: 46.1 mg/mL
- Appearance [2, 11]: Turbid
- Evidence of further precipitation on storage of filtrate at RT >24 h [2, 11]: No
- NUC-1031 mg/mL HPLC assay filtrate [2, 11]: 17.4 mg/mL
- Appearance [2, 12]: Clear
- Evidence of further precipitation on storage of filtrate at RT >24 h [2, 12]: Yes
- Appearance [2, 13]: Clear
- Evidence of further precipitation on storage of filtrate at RT >24 h [2, 13]: Yes
- Appearance [2, 14]: Precipitation,
- Evidence of further precipitation on storage of filtrate at RT >24 h [2, 14]: Yes
- NUC-1031 mg/mL HPLC assay filtrate [2, 14]: 10.5 mg/mL
- Appearance [2, 15]: Slightly turbid
- Evidence of further precipitation on storage of filtrate at RT >24 h [2, 15]: Yes
- NUC-1031 mg/mL HPLC assay filtrate [2, 15]: 18.8 mg/mL
- Appearance [2, 16]: Clear
- Evidence of further precipitation on storage of filtrate at RT >24 h [2, 16]: Yes
- Appearance [2, 17]: Precipitation
- Evidence of further precipitation on storage of filtrate at RT >24 h [2, 17]: Yes
- NUC-1031 mg/mL HPLC assay filtrate [2, 17]: 16.2 mg/mL
- stability for storage and transport ([3]; 250 mg/mL in 80:20 (by volume) DMA:0.9% saline): sufficiently stable for long term storage and transport
- osmolarity ([3]; 4, 8 and 10 mg/mL in 0.45% and 0.9% saline): acceptable for peripheral administration
- time stable to precipitation and to degradation after dilution ([3]; 4, 8 and 10 mg/mL, 0.45% and 0.9% saline, pH 4.5, 6.0 and 7.0, not stirred): 48 h
- solubility in water (Solubility in water): essentially insoluble in water
- Assay ([4]; 50:50 DMA:0.9% Saline): 66 mg/mL
- Precipitation > 24 hours ([4]; 50:50 DMA:0.9% Saline): Yes
- Assay ([4]; 60:40 DMA:0.9% Saline): 293 mg/mL
- Precipitation > 24 hours ([4]; 60:40 DMA:0.9% Saline): Yes
- Assay ([4]; 70:30 DMA:0.9% Saline): 339 mg/mL
- Precipitation > 24 hours ([4]; 70:30 DMA:0.9% Saline): Yes
- Precipitation (2 weeks) ([4]; 80:20 DMA in 0.9% Saline, assay 270 mg/ml): Yes
- Precipitation (2 weeks) ([4]; 80:20 DMA in 0.9% Saline, assay 272 mg/ml): No
- Precipitation (2 weeks) ([4]; 80:20 DMA in 0.9% Saline, assay 315 mg/ml): Yes
- Assay ([4]; 80:20 DMA:0.9% Saline): 386 mg/mL
- Precipitation > 24 hours ([4]; 80:20 DMA:0.9% Saline): Yes
- Precipitation (2 weeks) ([4]; 85:15 DMA in 0.9% Saline, assay 338 mg/ml): No
- Assay ([4]; 90:10 DMA:0.9% Saline): 483 mg/mL
- Precipitation > 24 hours ([4]; 90:10 DMA:0.9% Saline): No
- Assay ([4]; 95:5 DMA:0.9% Saline): 518 mg/mL
- Precipitation > 24 hours ([4]; 95:5 DMA:0.9% Saline): No
- Assay ([4]; 100% DMA): 592 mg/mL
- Precipitation > 24 hours ([4]; 100% DMA): No
- Assay ([4]; Table 2a, 80:20 DMA solution in 0.9% Saline): 304 mg/mL and 272 mg/mL and 315 mg/mL and 270 mg/mL
- Assay ([4]; Table 2a, 85:15 DMA solution in 0.9% Saline): 338 mg/mL
